Tests used:
[1] = tested on: p27 protein; experiment: p27 protein induction test (Western blotting); type: cell-based; details: test substance (0.1 1M), 24 hrs, ACHN cells or HT-29 cells, compared to DMSO, n=2
Summary of the method: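 p27 level taken as anti-p27 band density by densitometry, mean of n=2, with DMSO as control. Samples loaded at amount equivalent to 10 μg BSA. Cells were ACHN or HT-29, exposed 24 h to […] test substance after 24 h pre-culture.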

[2] = tested on: colorectal cancer cell line HT-29 cells; experiment: Growth inhibitory effect against cancer cell lines (3H-thymidine uptake), HT-29; type: cell-based; details: Homo sapiens, HT-29, inhibition of 3H-thymidine uptake; test substance 18 hrs, then 3H-thymidine 6 hrs; triplicate
Summary of the method: (§1)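 IC50 = concentration reducing ^3H-thymidine incorporation to 50% of DMSO control, measured in triplicate. Compound added 24 hrs after plating (1.0×10^4 cells/well); label (0.25 μCi/well) given after 18 hrs of treatment, followed by 6 hrs further culture and scintillation counting of harvested cells.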

[3] = tested on: ACHN cells or HT-29 cells; experiment: Cell cycle analysis (flow cytometry, CycleTEST PLUS); type: cell-based; details: test substance less than 10 μM, 24 hrs, compared to DMSO, n=2, read-out: CELL RATIO OF G0/G1 PHASE
Procedure: ACHN cells or HT-29 cells were cultured in a 6 well plate at 2.5×10^5 cells/1.8 mL/well for 24 hrs, then a test substance (less than 10 μM) dissolved in DMSO was added. After 24 hrs, cells were detached using trypsin-EDTA and the DNA content of single cell was analyzed by flow cytometry method using a CycleTEST PLUS (BECKTON DICKINSON) kit, and the proportion of the cells in the G0/G1 phase·S phase·G2/M phase was calculated. As a control, DMSO was used and the test was performed with n=2.

[4] = tested on: Renal cancer cell line ACHN cell; experiment: Growth inhibitory effect against cancer cell lines (3H-thymidine uptake), ACHN; type: cell-based; details: Homo sapiens, ACHN
Summary of the method: as §1

[5] = tested on: p15 protein; experiment: Evaluation of p15 induction activity (Western blotting); type: cell-based; details: test substance 0.1 μM, 24 hrs, ACHN cells or HT-29 cells, compared to DMSO, n=2
Summary of the method: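 p15 protein quantified by densitometry of anti-p15 Western blots (10 μg protein per lane, mean of n=2). Samples came from HT-29 or ACHN cells given 0.1 μM compound for 24 h after 24 h plating, with DMSO as control.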

[6] = tested on: HT-29 cells; experiment: Evaluation on the nude-mouse xenograft model; type: in vivo, mouse (Balb/c-nu/nu); details: HT-29, po, 240 h, 30 mg/kg orally twice a day for 10 days, tumor volume, treated vs vehicle group, n=6-8, read-out: T/C(%)
Procedure: HT-29 cells (5.0×10^6 cells/100 μL/head, suspended in HBSS (Hanks' solution)) in the logarithmic growth phase were implanted in a mouse (Balb/c-nu/nu) at the right lateral abdomen under ether anesthesia. After 5 days of implantation, the long diameter and short diameter of the tumor were measured, and the mice were divided into groups such that each group has an equivalent average tumor volume. For grouping, a grouping soft (general grouping system (Visions) was used. From the next day of the grouping, a test substance suspended in 0.5% MC (methyl cellulose) was repeatedly orally administered twice a day for 10 days (30 mg/kg). The tumor volume was measured twice a week and used as an index of antitumor activity. As a control, 0.5% MC was used and the test was performed with n=6-8.
The index (T/C (%)) of the antitumor activity was calculated according to the following formula.
T/C(%)=(The average tumor volume of the group treated with a test substance)/(The average tumor volume of the Vehicle group)×100
The tumor volume was calculated according to the following formula.
Tumor volume(mm^3)=L×W×W/2
(L: long diameter (mm) of tumor, W: short diameter (mm) of tumor)

[7] = molecular target: B-Raf and MEK1 (Homo sapiens, UniProt Q02750); experiment: MEK enzyme inhibitory activity, B-Raf and MEK1 system; type: biochemical; details: 30° C., 20 min, [γ-32P]-ATP; average of two or three tests
Chain of B-Raf and MEK1 (Q02750 whole entry): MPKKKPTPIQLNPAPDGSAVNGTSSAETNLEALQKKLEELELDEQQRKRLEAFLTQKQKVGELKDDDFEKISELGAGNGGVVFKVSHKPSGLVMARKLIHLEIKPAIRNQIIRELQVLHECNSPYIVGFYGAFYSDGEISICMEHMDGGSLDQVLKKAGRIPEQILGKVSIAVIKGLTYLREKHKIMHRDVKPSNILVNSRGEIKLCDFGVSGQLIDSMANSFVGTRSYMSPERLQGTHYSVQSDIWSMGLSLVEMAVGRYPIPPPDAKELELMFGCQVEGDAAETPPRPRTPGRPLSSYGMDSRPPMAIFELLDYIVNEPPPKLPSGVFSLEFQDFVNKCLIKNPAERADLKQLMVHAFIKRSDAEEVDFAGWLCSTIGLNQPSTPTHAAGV
Procedure: (§2) To an evaluation system where Raf (B-Raf or c-Raf) and MEK (MEK1 or MEK2) were mixed, or MEK (MEK1 or MEK2) and ERK2 were mixed was added a test substance dissolved in DMSO, and an ATP solution containing [γ-32P]-ATP was added to start the enzyme reaction. After reacting at 30° C. for 20 min, the reaction mixture was subjected to SDS-PAGE (sodium dodecylsulfate-polyacrylamide gel electrophoresis) and radioactivity of phosphorylated MEK or ERK2 was measured by Bio Imaging Analyzer (BAS2000, Fuji photo film).

[8] = molecular target: B-Raf and MEK2 (Homo sapiens, UniProt P36507); experiment: MEK enzyme inhibitory activity, B-Raf and MEK2 system; type: biochemical; details: 30° C., 20 min, [γ-32P]-ATP; average of two or three tests
Chain of B-Raf and MEK2 (P36507 whole entry): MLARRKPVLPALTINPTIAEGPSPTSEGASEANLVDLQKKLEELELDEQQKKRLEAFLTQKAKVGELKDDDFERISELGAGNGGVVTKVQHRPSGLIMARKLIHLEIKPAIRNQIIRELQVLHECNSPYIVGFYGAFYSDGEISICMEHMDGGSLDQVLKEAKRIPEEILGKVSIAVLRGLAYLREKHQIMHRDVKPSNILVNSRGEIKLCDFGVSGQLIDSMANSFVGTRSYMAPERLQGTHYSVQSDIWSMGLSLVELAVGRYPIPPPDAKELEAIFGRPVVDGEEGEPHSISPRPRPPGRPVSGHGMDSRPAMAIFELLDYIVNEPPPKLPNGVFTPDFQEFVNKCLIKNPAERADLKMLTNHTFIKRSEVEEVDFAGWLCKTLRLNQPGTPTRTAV
Procedure: as §2

[9] = molecular target: MEK2 and ERK2 (Homo sapiens, UniProt P36507); experiment: MEK enzyme inhibitory activity, MEK2 and ERK2 system; type: biochemical; details: 30° C., 20 min, [γ-32P]-ATP; average of two or three tests
Chain of MEK2 and ERK2 (P36507 whole entry): as above
Procedure: as §2

[10] = molecular target: c-Raf and MEK2 (Homo sapiens, UniProt P36507); experiment: MEK enzyme inhibitory activity, c-Raf and MEK2 system; type: biochemical; details: 30° C., 20 min, [γ-32P]-ATP; average of two or three tests
Chain of c-Raf and MEK2 (P36507 whole entry): as above
Procedure: as §2

[11] = molecular target: MEK1 and ERK2 (Homo sapiens, UniProt Q02750); experiment: MEK enzyme inhibitory activity, MEK1 and ERK2 system; type: biochemical; details: 30° C., 20 min, [γ-32P]-ATP; average of two or three tests
Chain of MEK1 and ERK2 (Q02750 whole entry): as the sequence (Q02750 whole entry) above
Procedure: as §2

[12] = tested on: TNF-α or IL-6; experiment: Evaluation on inflammatory cytokine production (LPS-stimulated PBMC); type: cell-based; details: human PBMC stimulated with LPS
[13] = tested on: mouse (DBA/1) collagen arthritis; details: 17 days after boost, 1 mg/kg oral once a day for 38 days; medium group 2.2; p<0.001; n=16

| Compound | IC50 [2] [nM] | IC50 [4] [nM] | IC50 of various enzyme reaction system, B-Raf MEK1 [7] [nM] | IC50 of various enzyme reaction system, B-Raf MEK2 [8] [nM] | IC50 of various enzyme reaction system, MEK2 ERK2 [9] [nM] | IC50 of various enzyme reaction system, c-Raf MEK2 [10] [nM] | IC50 of various enzyme reaction system, MEK1 ERK2 [11] [nM] | fold induction at 0.1 µM [1] | fold induction [3] | fold induction at 0.1 µM [5] | response vs control in vivo at 30 mg/kg [6] [%] | production of TNF-α or IL-6 [12] | fold induction at up to 10 µM [3] | arthritis score [13] |
| --- | --- | --- | --- | --- | --- | --- | --- | --- | --- | --- | --- | --- | --- | --- |
| Cn1c(=O)cc(Nc2ccc(Br)cc2)c2c(=O)n(C3CC3)c(=O)n(-c3ccccc3)c21 [Example 1-89] | 10 to 100 | 100 to 1000 | – | – | – | – | – | ≥ 1.5 | ≥ 1.2 | ≥ 1.5 | – | – | – | – |
| Cn1c(=O)cc(Nc2ccc(I)cc2F)c2c(=O)n(C3CC3)c(=O)n(-c3cccc(NS(C)(=O)=O)c3)c21 [Example 1-257] | < 10 | < 10 | 6 | 18.8 | 1600 | 7.8 | 1300 | ≥ 1.5 | – | – | 26 | – | – | – |
| C#Cc1ccc(Nc2c3c(=O)n(C4CC4)c(=O)n(-c4cccc(NS(C)(=O)=O)c4)c3c(C)c(=O)n2C)c(F)c1 [Example 3-8] | < 10 | 10 to 100 | – | – | – | – | – | – | – | ≥ 1.5 | 27 | – | – | – |
| CC(=O)Nc1cccc(-n2c(=O)n(C3CC3)c(=O)c3c(Nc4ccc(I)cc4F)n(C)c(=O)c(C)c32)c1 [Example 4-1, N-{3-[3-cyclopropyl-5-(2-fluoro-4-iodophenylamino)-6,8-dimethyl-2,4,7-trioxo-3,4,6,7-tetrahydro-2H-pyrido[4,3-d]pyrimidin-1-yl]-phenyl}-acetamide] | < 10 | < 10 | – | – | – | – | – | – | – | – | 3 | suppressed | – | – |
| C#Cc1ccc(Nc2c3c(=O)n(C4CC4)c(=O)n(-c4cccc(NC(C)=O)c4)c3c(C)c(=O)n2C)c(F)c1 [Example 4-3, N-{3-[3-cyclopropyl-5-(4-ethynyl-2-fluorophenylamino)-6,8-dimethyl-2,4,7-trioxo-3,4,6,7-tetrahydro-2H-pyrido[4,3-d]pyrimidin-1-yl]phenyl}acetamide] | < 10 | 10 to 100 | – | – | – | – | – | ≥ 1.5 | – | ≥ 1.5 | – | – | ≥ 1.2 | – |
| CC(=O)Nc1cccc(-n2c(=O)n(C)c(=O)c3c(Nc4ccc(I)cc4F)n(C)c(=O)c(C)c32)c1 [Example 4-15] | < 10 | 10 to 100 | – | – | – | – | – | ≥ 1.5 | – | ≥ 1.5 | 31 | – | – | – |
| CC(=O)Nc1cccc(-n2c(=O)n(C3CC3)c(=O)c3c(Nc4ccc(I)cc4F)n(C)c(=O)c(C)c32)c1.CC(=O)O [N-{3-[3-Cyclopropyl-5-(2-fluoro-4-iodo-phenylamino)-6,8-dimethyl-2,4,7-trioxo-3,4,6,7-tetrahydro-2H-pyrido[4,3-d]pyrimidin-1-yl]-phenyl}-acetamide Acetic Acid Solvate] | – | – | – | – | – | – | – | – | – | – | – | – | – | 0.57 |

Continued, in another order:

| IC50 [2] [nM] | IC50 [4] [nM] | IC50 of various enzyme reaction system, B-Raf MEK1 [7] [nM] | IC50 of various enzyme reaction system, B-Raf MEK2 [8] [nM] | IC50 of various enzyme reaction system, MEK2 ERK2 [9] [nM] | IC50 of various enzyme reaction system, c-Raf MEK2 [10] [nM] | IC50 of various enzyme reaction system, MEK1 ERK2 [11] [nM] | Compound | fold induction at 0.1 µM [1] | fold induction [3] | fold induction at 0.1 µM [5] | response vs control in vivo at 30 mg/kg [6] [%] | production of TNF-α or IL-6 [12] | fold induction at up to 10 µM [3] | arthritis score [13] |
| --- | --- | --- | --- | --- | --- | --- | --- | --- | --- | --- | --- | --- | --- | --- |
| < 10 | < 10 | – | – | – | – | – | Cc1c(=O)n(C)c(Nc2ccc(I)cc2F)c2c(=O)n(C)c(=O)n(-c3cccc(NS(C)(=O)=O)c3)c12 [Example 4-16, N-{3-[5-(2-fluoro-4-iodophenylamino)-3,6,8-trimethyl-2,4,7-trioxo-3,4,6,7-tetrahydro-2H-pyrido[4,3-d]pyrimidin-1-yl]phenyl}methanesulfonamide] | ≥ 1.5 | – | ≥ 1.5 | 10 | suppressed | ≥ 1.2 | – |
| < 10 | 10 to 100 | – | – | – | – | – | C#Cc1ccc(Nc2c3c(=O)n(C)c(=O)n(-c4cccc(NS(C)(=O)=O)c4)c3c(C)c(=O)n2C)c(F)c1 [Example 4-49] | ≥ 1.5 | – | ≥ 1.5 | 35 | – | – | – |
| < 10 | < 10 | – | – | – | – | – | Cc1c(=O)n(C)c(Nc2ccc(I)cc2F)c2c(=O)n(C3CC3)c(=O)n(-c3cccc(NS(N)(=O)=O)c3)c12 [Example 4-54] | ≥ 1.5 | – | ≥ 1.5 | 11 | – | – | – |
| < 10 | 10 to 100 | – | – | – | – | – | Cc1c(=O)n(C)c(Nc2ccc(I)cc2F)c2c(=O)n(C3CC3)c(=O)n(-c3ccc(NS(C)(=O)=O)cc3)c12 [Example 4-70] | ≥ 1.5 | – | ≥ 1.5 | 31 | – | ≥ 1.2 | – |
| < 10 | 10 to 100 | – | – | – | – | – | Cc1c(=O)n(C)c(Nc2ccc(I)cc2F)c2c(=O)n(C3CC3)c(=O)n(-c3cccc(NC(=O)CO)c3)c12 [Example 4-82] | ≥ 1.5 | – | ≥ 1.5 | – | – | ≥ 1.2 | – |
| < 10 | < 10 | – | – | – | – | – | Cc1c(=O)n(C)c(Nc2ccc(I)cc2F)c2c(=O)n(C3CC3)c(=O)n(-c3ccc(S(N)(=O)=O)cc3)c12 [Example 4-104] | ≥ 1.5 | – | ≥ 1.5 | – | – | ≥ 1.2 | – |
| < 10 | < 10 | – | – | – | – | – | Cc1c(=O)n(C)c(Nc2ccc(I)cc2F)c2c(=O)n(C3CC3)c(=O)n(-c3ccc4oc(=O)[nH]c4c3)c12 [Example 4-126] | ≥ 1.5 | – | ≥ 1.5 | – | – | ≥ 1.2 | – |

Reference: patent US20180273531A1, “PYRIMIDINE COMPOUND AND MEDICAL USE THEREOF” (Japan Tobacco Inc., priority 2004, published 2018)
